Calls of active or inactive are those of the source. Bounds are passed on as bounds.

Assay [1] is described as follows: HGIII-sPLA2 enzyme inhibition potency – biochemical, QFRET, IC50, dose response (AID 743457).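 Also: green fluorescence rise as the enzyme cleaves BODIPY PC-A2 in liposomes.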
The target of assay [2] is Nonstructural protein 1 (Influenza A virus, UniProt Q194T2). In kind it is functional, Influenza A virus (A/California/07/2009(H1N1)).
The target of assay [3] is T1, Histone-lysine N-methyltransferase NSD2 (Homo sapiens, UniProt O96028).
T1 sequence (O96028 whole entry): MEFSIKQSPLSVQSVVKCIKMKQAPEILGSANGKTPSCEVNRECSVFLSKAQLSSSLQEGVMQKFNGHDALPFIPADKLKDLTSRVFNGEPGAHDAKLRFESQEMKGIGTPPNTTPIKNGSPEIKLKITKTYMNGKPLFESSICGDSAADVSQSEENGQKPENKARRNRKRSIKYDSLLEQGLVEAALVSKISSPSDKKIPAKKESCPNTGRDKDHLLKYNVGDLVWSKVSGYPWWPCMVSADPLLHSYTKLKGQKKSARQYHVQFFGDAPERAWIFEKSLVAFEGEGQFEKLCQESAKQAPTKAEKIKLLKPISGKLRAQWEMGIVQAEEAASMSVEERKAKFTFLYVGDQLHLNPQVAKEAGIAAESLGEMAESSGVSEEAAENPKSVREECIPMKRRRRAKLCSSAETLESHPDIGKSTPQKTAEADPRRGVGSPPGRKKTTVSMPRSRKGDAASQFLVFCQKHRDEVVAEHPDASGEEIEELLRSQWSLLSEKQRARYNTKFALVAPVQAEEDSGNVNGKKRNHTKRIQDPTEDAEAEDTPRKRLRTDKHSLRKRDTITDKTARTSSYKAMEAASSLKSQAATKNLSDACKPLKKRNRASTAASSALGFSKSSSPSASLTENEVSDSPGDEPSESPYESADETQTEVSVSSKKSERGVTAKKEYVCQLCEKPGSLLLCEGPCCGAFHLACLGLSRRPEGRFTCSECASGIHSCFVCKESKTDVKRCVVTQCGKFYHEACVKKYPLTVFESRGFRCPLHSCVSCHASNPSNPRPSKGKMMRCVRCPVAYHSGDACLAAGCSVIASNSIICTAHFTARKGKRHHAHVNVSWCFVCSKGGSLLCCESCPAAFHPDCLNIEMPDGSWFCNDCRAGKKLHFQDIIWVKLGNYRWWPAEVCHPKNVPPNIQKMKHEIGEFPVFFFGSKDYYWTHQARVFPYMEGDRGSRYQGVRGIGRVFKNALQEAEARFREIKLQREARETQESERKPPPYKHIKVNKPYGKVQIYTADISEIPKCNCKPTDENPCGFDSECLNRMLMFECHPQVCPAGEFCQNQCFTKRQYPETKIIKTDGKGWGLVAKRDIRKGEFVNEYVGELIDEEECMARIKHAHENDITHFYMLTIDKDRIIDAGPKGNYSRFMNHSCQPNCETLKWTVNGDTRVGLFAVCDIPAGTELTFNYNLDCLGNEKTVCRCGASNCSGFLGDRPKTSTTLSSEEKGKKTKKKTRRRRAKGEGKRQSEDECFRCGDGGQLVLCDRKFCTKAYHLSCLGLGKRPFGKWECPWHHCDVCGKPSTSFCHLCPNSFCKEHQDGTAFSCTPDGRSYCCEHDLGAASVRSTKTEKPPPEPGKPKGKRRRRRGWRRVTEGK
Type of assay: biochemical.

The nature of assay [4]: loss of viability in HepG2 cells – cell-based, CellTiter-Glo, cherry-picked, cytotoxicity control for Shn3 inhibitor project, dose response (AID 624134). In kind it is functional. A general note: In ATP-based viability assays light output follows the ATP content of the culture.
A short description of assay [5]: non-specific 3'UTR reporter inhibition in Clone20-Shn3RL – cell-based, Renilla luciferase, cherry-picked, counter-screen for Shn3 inhibitor project, dose response (AID 624133). In kind it is functional.
Assay [6] can be described thus: reduction of Shn3 3'UTR-driven luciferase in osteoblasts – cell-based, Clone20 osteoblasts, firefly luciferase, cherry-picked, dose response (AID 624132).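 Also: firefly luciferase luminescence from reporter carrying the Shn3 3'UTR in osteoblasts.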 Type of assay: functional.
For assay [7], the target named is Kallikrein-7 (Homo sapiens, UniProt P49862). In words: Fluorescence Intensity-based biochemical primary high throughput dose response assay to identify activators of kallikrein-7 (K7) zymogen.
Kallikrein-7, sequence (P49862 whole entry): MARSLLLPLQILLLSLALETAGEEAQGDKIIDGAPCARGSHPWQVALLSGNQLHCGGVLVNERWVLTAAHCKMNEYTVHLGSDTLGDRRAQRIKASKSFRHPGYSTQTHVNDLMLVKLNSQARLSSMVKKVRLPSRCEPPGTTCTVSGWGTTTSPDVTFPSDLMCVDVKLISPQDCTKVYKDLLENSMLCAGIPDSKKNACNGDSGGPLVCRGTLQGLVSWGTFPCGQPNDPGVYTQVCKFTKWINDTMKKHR
Assay [8] in a line: blockers of bursicon-stimulated LGR2 cAMP reporter – cell-based, HEK293, CRE-luciferase reporter, cherry pick, set 2, dose response (AID 743343).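 Also: transfected cells were stimulated with diluted bursicon conditioned medium after compound addition.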 In kind it is functional. (In a reporter assay the amount or activity of a reporter protein is the signal.)
Assay [9] can be described thus: toxicity toward HepG2 liver cells – cell-based, plate reader, cherry-pick, antagonist series, cytotoxicity control, dose response (AID 743416). Type of assay: functional.
Assay [10] in a line: viability loss in HEK293 cells – cell-based, plate reader, cherry-picked samples, cytotoxicity control, dose response (AID 743446). In kind it is functional.
The nature of assay [11]: A549 cell cytotoxicity, dose response, cytotoxicity control, plate reader, cherry-pick, antagonist series (AID 743412). In kind it is functional, cell-based.
Assay [12] in a line: blockade of melanocortin 4 receptor signaling – cell-based, plate reader, cherry pick, counter-screen for LGR2 antagonist project, dose response (AID 743444).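 Also: transfected HEK 293 cells stimulated with alpha-MSH peptide; potency of inhibitors of the alpha-MSH evoked signal.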 In kind it is functional.
The nature of assay [13]: OVCAR8 cell viability loss – plate reader, dry powder samples, PAX8 project, dose response (AID 743197). In kind it is functional, cell-based. The note with it: OVCAR-8.
In assay [14] the target is Paired box protein Pax-8 (Homo sapiens, UniProt Q06710). The experiment in a line: PAX8 transcriptional activity inhibition in RMG-I – RMG-I cells, luciferase, cherry-pick, dose response (AID 687027).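 Also: luciferase reporter driven by Pax8 target thyroperoxidase promoter measured by SteadyGlo luminescence.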 In kind it is functional, cell-based.
Paired box protein Pax-8, sequence (Q06710 whole entry): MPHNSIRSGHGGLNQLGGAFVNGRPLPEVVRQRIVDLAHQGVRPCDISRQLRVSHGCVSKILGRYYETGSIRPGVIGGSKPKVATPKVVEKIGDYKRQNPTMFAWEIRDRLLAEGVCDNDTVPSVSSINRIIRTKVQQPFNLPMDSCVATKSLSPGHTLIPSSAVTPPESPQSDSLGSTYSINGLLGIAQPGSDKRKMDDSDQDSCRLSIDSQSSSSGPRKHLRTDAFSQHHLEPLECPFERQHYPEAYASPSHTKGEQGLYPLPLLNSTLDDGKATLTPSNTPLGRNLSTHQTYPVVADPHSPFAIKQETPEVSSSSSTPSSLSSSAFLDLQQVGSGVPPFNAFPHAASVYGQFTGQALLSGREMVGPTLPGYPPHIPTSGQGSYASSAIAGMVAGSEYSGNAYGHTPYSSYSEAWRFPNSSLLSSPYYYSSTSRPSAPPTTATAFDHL
Assay [15] in a line: OVCAR-3 cell viability loss – plate reader, dry powder samples, PAX8 inhibitor project, dose response (AID 743044). In kind it is functional, cell-based.

Nonstructural protein 1, sequence (Q194T2 whole entry): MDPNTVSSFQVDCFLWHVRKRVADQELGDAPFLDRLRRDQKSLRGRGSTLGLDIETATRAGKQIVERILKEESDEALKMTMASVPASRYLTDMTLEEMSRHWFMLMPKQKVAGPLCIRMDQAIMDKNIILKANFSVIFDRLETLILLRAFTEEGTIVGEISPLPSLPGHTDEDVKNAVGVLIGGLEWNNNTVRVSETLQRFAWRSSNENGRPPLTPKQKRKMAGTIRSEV

With `Cc1cc(N2CCCC2)ccc1NC(=O)COc1cccc(C(F)(F)F)c1`, the IC50 in assay [1] is > 122 µM (inactive).
On to `CN(C1=C(N2CCOCC2)C(=O)c2ccccc2C1=O)c1ccccc1`, for which the IC50 was 11.9 µM (active) in assay [2] and > 122 µM (inactive) in assay [1]. In addition, the half-maximal activity concentration (AC50) in [3] was 4.86 µM (active).
For `CCC(CC)CC1CN2CCc3cc(OC)c(OC)cc3C2CC1(O)CC` (stereo not given), the AC50 was > 70 µM (inactive) in assay [4], 3.89 µM (active) in assay [5] and 2 µM (active) in [6]. Also, the EC50 in [7] is 8.32 µM (active).
With `Oc1nc2ccccc2n1C1CCN(C(CCc2ccccc2)c2nnnn2C2CCCC2)CC1` (stereo not given), the AC50 is 20.3 µM (active) in [8]; 22.4 µM (active) in [9]; 14.1 µM (active) in assay [10]; 13.3 µM (active) in [11]; 18.4 µM (active) in assay [12].
`C[C@@H]1CCCCO[C@H](CN(C)Cc2ccc(C(F)(F)F)cc2)[C@H](C)CN([C@H](C)CO)C(=O)c2cc(NS(=O)(=O)c3ccccc3)ccc2O1`: the AC50 in [13] was > 70 µM (inactive); in assay [14] it was 6.88 µM (active).
The corresponding values for `C[C@H]1CCCCO[C@@H](CN(C)Cc2ccncc2)[C@@H](C)CN([C@@H](C)CO)C(=O)c2cc(NC(=O)Nc3ccc(C(F)(F)F)cc3)ccc2O1` are > 70 µM (inactive) and 7.3 µM (active).
Consider `O=C(Nc1ccccc1)N1CCCCN2[C@H](C1)[C@@H](c1ccc(C#Cc3ccccc3)cc1)[C@@H]2CO`, for which the half-maximal activity concentration (AC50) in assay [13] is 26 µM (active); in assay [14], 10.5 µM (active); in assay [15], 26 µM (active).

For orientation: IC50 means the midpoint of a concentration-inhibition curve. One may read the AC50 as the midpoint of the concentration-response curve, whichever way the signal moves. In general, EC50 refers to the concentration giving half of the maximal effect.

Source of the values: ChEMBL document CHEMBL1201862, “PubChem BioAssay data set” (2004).
